Assay results published in PMC12448892 (2025).

Columns and labels:
[1] = system: ADH1 WT (DNA, G4) GGGGCCGGTAGCGAGTGATAGCGAGGGAAAGACGATCGCTATCGGGCCGTAAGGAGGAAATGGGAGGTTGGGGG; assay: circular dichroism; details: 100 mM KCl; 10 mM Tris pH 7.5, 25 °C; 5 μM DNA, 10 μM PhenDC3; slight broadening of spectra
[2] = system: ADH1 5_G MUT (DNA, G4) GTGGCCGGTAGCGAGTGATAGCGAGTGAAAGACGATCGCTATCGTGCCGTAACGAGGAAATGTGAGGTTGGGGG; assay: circular dichroism; details: 100 mM KCl; 10 mM Tris pH 7.5, 25 °C; 5 μM DNA, 10 μM PhenDC3; slight broadening of spectra
[3] = system: ADH1 4_G MUT (DNA, G4) GTGGCCGGTAGCGAGTGATAGCGAGTGAAAGACGATCGCTATCGTGCCGTAAGGAGGAAATGTGAGGTTGGGGG; assay: circular dichroism; details: 100 mM KCl; 10 mM Tris pH 7.5, 25 °C; 5 μM DNA, 10 μM PhenDC3; slight broadening of spectra
[4] = system: ADH1 WT (DNA, G4) GGGGCCGGTAGCGAGTGATAGCGAGGGAAAGACGATCGCTATCGGGCCGTAAGGAGGAAATGGGAGGTTGGGGG; assay: ThT fluorescence titration; details: 10 mM KCl; 10 mM Tris pH 7.5, room temperature; 0.5 μM ThT; apparent
[5] = system: ADH1 5_G MUT (DNA, G4) GTGGCCGGTAGCGAGTGATAGCGAGTGAAAGACGATCGCTATCGTGCCGTAACGAGGAAATGTGAGGTTGGGGG; assay: ThT fluorescence titration; details: 10 mM KCl; 10 mM Tris pH 7.5, room temperature; 0.5 μM ThT; apparent
[6] = system: ADH1 4_G MUT (DNA, G4) GTGGCCGGTAGCGAGTGATAGCGAGTGAAAGACGATCGCTATCGTGCCGTAAGGAGGAAATGTGAGGTTGGGGG; assay: ThT fluorescence titration; details: 10 mM KCl; 10 mM Tris pH 7.5, room temperature; 0.5 μM ThT; apparent

Row | binding [1] | binding [2] | binding [3] | k [4] | k [5] | k [6] | Compound
1 | yes | yes | yes | – | – | – | C[n+]1cc(NC(=O)c2ccc3ccc4ccc(C(=O)Nc5cc6ccccc6[n+](C)c5)nc4c3n2)cc2ccccc21
2 | – | – | – | 0.65 ± 0.04 µM | 0.89 ± 0.13 µM | 0.76 ± 0.06 µM | Cc1ccc2c(c1)sc(-c1ccc(N(C)C)cc1)[n+]2C
